In ChEMBL document CHEMBL3991601, “The target landscape of clinical kinase drugs” (Science, 2017):
Activity calls are given as the source filed them.

Legend:
[1] = target: Inosine-5'-monophosphate dehydrogenase 2 (Homo sapiens, UniProt P12268)
[2] = target: T1, Cytochrome c1, heme protein, mitochondrial (Homo sapiens, UniProt P08574)
T1 sequence (P08574 whole entry): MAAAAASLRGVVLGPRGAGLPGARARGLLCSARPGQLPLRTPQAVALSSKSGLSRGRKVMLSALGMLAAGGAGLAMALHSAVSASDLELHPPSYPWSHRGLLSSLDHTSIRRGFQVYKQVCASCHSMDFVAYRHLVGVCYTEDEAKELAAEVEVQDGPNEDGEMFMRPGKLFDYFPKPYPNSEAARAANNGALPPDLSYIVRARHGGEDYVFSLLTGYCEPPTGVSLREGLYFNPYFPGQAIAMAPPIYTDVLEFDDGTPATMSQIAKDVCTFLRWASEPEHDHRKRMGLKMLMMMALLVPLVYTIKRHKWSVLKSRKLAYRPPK

[3] = target: T2, Interleukin-1 receptor-associated kinase 4 (Homo sapiens, UniProt Q9NWZ3)
T2 sequence (Q9NWZ3 whole entry): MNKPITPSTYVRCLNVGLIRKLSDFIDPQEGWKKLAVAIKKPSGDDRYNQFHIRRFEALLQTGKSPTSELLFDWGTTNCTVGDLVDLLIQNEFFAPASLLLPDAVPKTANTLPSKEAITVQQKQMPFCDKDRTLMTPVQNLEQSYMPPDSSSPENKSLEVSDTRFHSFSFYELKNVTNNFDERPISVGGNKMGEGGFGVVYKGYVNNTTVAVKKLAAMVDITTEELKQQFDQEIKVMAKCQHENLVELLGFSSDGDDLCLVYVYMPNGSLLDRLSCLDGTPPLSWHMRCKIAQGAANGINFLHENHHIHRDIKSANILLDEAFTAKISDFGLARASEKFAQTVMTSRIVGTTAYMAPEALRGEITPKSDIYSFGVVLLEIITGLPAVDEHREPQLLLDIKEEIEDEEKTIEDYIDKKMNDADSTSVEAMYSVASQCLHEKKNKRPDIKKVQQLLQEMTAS

[4] = target: Mitogen-activated protein kinase 10 (Homo sapiens, UniProt P53779)
Chain of Mitogen-activated protein kinase 10 (P53779 whole entry): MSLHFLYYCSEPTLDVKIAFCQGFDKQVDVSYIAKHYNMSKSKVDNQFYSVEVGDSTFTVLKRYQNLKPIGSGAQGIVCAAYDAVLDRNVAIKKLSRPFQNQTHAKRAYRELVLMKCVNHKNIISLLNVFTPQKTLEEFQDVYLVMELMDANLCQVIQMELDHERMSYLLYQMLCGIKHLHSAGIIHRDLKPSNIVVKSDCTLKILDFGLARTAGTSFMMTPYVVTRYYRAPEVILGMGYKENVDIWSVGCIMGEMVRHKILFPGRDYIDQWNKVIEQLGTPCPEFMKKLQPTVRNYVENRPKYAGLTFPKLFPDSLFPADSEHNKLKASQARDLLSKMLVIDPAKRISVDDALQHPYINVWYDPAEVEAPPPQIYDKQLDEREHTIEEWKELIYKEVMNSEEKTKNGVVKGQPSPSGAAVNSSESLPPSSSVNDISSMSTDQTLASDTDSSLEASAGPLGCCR

ADP/ATP translocase 3 = target: T3, ADP/ATP translocase 3 (Homo sapiens, UniProt P12236)
T3 sequence (P12236 whole entry): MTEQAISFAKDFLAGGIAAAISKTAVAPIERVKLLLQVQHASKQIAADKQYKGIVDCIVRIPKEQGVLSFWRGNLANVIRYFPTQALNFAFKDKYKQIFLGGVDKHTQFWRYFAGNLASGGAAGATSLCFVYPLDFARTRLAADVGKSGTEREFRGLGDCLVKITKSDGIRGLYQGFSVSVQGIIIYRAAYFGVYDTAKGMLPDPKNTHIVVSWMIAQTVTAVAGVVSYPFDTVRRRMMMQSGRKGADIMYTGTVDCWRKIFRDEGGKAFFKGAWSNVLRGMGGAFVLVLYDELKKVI

[5] = target: T4, Bifunctional phosphoribosylaminoimidazole carboxylase/phosphoribosylaminoimidazole succinocarboxamide synthetase (Homo sapiens, UniProt P22234)
T4 sequence (P22234 whole entry): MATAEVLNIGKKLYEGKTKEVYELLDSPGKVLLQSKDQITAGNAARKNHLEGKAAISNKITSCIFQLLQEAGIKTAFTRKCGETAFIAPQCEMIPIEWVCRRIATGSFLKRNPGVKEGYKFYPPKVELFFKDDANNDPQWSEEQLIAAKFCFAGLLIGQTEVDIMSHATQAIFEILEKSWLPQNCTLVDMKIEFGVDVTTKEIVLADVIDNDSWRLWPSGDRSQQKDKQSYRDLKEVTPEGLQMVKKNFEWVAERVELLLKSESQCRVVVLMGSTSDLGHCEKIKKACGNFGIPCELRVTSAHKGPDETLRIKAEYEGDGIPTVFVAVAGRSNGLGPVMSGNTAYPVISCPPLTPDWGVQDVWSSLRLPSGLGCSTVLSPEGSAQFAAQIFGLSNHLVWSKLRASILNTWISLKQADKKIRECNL

[6] = target: T5, Dual specificity mitogen-activated protein kinase kinase 3 (Homo sapiens, UniProt P46734)
T5 sequence (P46734 whole entry): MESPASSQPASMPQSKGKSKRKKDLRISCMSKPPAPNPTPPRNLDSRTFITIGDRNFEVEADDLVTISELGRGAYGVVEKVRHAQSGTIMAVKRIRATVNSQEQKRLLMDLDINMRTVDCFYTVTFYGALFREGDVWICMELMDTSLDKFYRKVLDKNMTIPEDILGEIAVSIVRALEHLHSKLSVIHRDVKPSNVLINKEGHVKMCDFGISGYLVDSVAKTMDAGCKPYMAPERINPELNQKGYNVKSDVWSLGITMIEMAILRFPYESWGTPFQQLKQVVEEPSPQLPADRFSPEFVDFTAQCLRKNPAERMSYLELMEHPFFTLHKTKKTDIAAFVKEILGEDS
Also: in the data inactive means no Kd found up to 30 µM.

Kd [1]	Kd [2]	Kd [3]	Kd [4]	Kd (ADP/ATP translocase 3)	Kd [5]	Kd [6]	Compound
> 30 µM (inactive)	> 30 µM (inactive)	> 30 µM (inactive)	> 30 µM (inactive)	> 30 µM (inactive)	> 30 µM (inactive)	> 30 µM (inactive)	Cc1ccc(S(=O)(=O)Nc2nc3ccccc3nc2Nc2ccc3nsnc3c2)cc1
> 30 µM (inactive)	> 30 µM (inactive)	> 30 µM (inactive)	> 30 µM (inactive)	> 30 µM (inactive)	> 30 µM (inactive)	> 30 µM (inactive)	CNC(=O)c1ccc(C)c(-n2c(C)cc(OCc3ccc(F)cc3F)c(Br)c2=O)c1 [PH-797804]
> 30 µM (inactive)	> 30 µM (inactive)	> 30 µM (inactive)	> 30 µM (inactive)	> 30 µM (inactive)	> 30 µM (inactive)	> 30 µM (inactive)	CNC(=O)c1cc(Oc2ccc(NC(=O)Nc3ccc(Cl)c(C(F)(F)F)c3)c(F)c2)ccn1 [REGORAFENIB]
> 30 µM (inactive)	> 30 µM (inactive)	> 30 µM (inactive)	> 30 µM (inactive)	> 30 µM (inactive)	> 30 µM (inactive)	> 30 µM (inactive)	CN1CCC(CNc2ccc3ncc(-c4cccc(OC(F)(F)F)c4)n3n2)CC1 [SGI-1776]

The next lines start with the compound.

Compound	Kd [1]	Kd [2]	Kd [3]	Kd [4]	Kd (ADP/ATP translocase 3)	Kd [5]	Kd [6]
N[C@@H]1CCCN(c2c(/C=C3\SC(=O)NC3=O)cccc2-c2ccccc2)C1	> 30 µM (inactive)	> 30 µM (inactive)	> 30 µM (inactive)	> 30 µM (inactive)	> 30 µM (inactive)	> 30 µM (inactive)	> 30 µM (inactive)
CN1CCC(COc2cnc(-c3cccc(Cn4nc(-c5cccc(C#N)c5)ccc4=O)c3)nc2)CC1 [TEPOTINIB]	> 30 µM (inactive)	> 30 µM (inactive)	> 30 µM (inactive)	> 30 µM (inactive)	> 30 µM (inactive)	> 30 µM (inactive)	> 30 µM (inactive)
O=C(c1ccc(F)c(F)c1Nc1ccc(I)cc1F)N1CC(O)([C@@H]2CCCCN2)C1 [COBIMETINIB]	> 30 µM (inactive)	> 30 µM (inactive)	> 30 µM (inactive)	> 30 µM (inactive)	> 30 µM (inactive)	> 30 µM (inactive)	> 30 µM (inactive)
COc1cc2nccc(Oc3ccc(NC(=O)Nc4cc(C)on4)c(Cl)c3)c2cc1OC [TIVOZANIB]	> 30 µM (inactive)	> 30 µM (inactive)	> 30 µM (inactive)	> 30 µM (inactive)	> 30 µM (inactive)	> 30 µM (inactive)	> 30 µM (inactive)
Cn1cc(-c2ccc(F)c(C(F)(F)F)c2)nc1C1CCN(c2ncnc3[nH]ncc23)CC1 [LY-2584702]	> 30 µM (inactive)	> 30 µM (inactive)	> 30 µM (inactive)	> 30 µM (inactive)	> 30 µM (inactive)	> 30 µM (inactive)	> 30 µM (inactive)
CCS(=O)(=O)N1CC(CC#N)(n2cc(-c3ncnc4[nH]ccc34)cn2)C1 [BARICITINIB]	> 30 µM (inactive)	> 30 µM (inactive)	> 30 µM (inactive)	> 30 µM (inactive)	> 30 µM (inactive)	> 30 µM (inactive)	> 30 µM (inactive)
O=C(Nc1ccc(-c2ccnc(Nc3ccc(N4CCOCC4)cc3)n2)cc1)C1CCCN1 (stereo unspecified) [XL-019]	> 30 µM (inactive)	> 30 µM (inactive)	> 30 µM (inactive)	> 30 µM (inactive)	> 30 µM (inactive)	> 30 µM (inactive)	> 30 µM (inactive)
COc1cc(CCc2cc(NC(=O)c3ccc(N4C[C@@H](C)N[C@@H](C)C4)cc3)n[nH]2)cc(OC)c1 [AZD-4547]	> 30 µM (inactive)	> 30 µM (inactive)	> 30 µM (inactive)	> 30 µM (inactive)	> 30 µM (inactive)	> 30 µM (inactive)	> 30 µM (inactive)
COc1cc(OC)c(/C=C/S(=O)(=O)Cc2ccc(OC)c(NCC(=O)O)c2)c(OC)c1 [RIGOSERTIB]	> 30 µM (inactive)	> 30 µM (inactive)	> 30 µM (inactive)	> 30 µM (inactive)	> 30 µM (inactive)	> 30 µM (inactive)	> 30 µM (inactive)
